The test system of one assay is Marchantia polymorpha. Conditions: stated as known, like liverworts in general; cited from earlier work.
The subject of assay [1] is wild type Marchantia plants. Briefly: Lethal concentration determination: Marchantia spores plated on Johnson's medium agar supplemented with herbicide, 14-day old sporelings. Format: in vivo, Marchantia polymorpha. The procedure:
A lethal concentration of the herbicide hit was determined in the condition of the mutagenesis concentration. 20000 Marchantia spores were plated in 90 mm Petri dishes containing 25 mL of Johnson's medium containing 1.4% agar and supplemented with a range of herbicide hit concentrations ranging from 1 to 50000 nM. The lethal concentration was defined as the minimum concentration of herbicide hit sufficient to kill 100% of the wild type Marchantia plants (FIG. 11).
If no lethal concentration was observed, the highest concentration would be used in place of the lethal concentration provided that it caused the plants to show a phenotype distinct from the phenotype of untreated plants. For example, this alternative phenotype may be a strong reduction in growth (FIG. 12) or a marked change in the shape of the plants, or a change in plant pigmentation.
Marchantia polymorpha spores were irradiated with ultraviolet B irradiation and seven independent mutant lines resistant to the herbicide chlorsulfuron were identified. Chlorsulfuron resistance was determined by a Marchantia polymorpha plant that was alive two weeks following exposure to a lethal dose of Chlorsulfuron (0.1 ppm dose, i.e. a dose sufficient to kill 100% of wild-type plants).

The mark [2] stands for this setting: 1000 μM herbicide, 14-day old sporelings in Petri dishes, three replicates.

`O=C(O)CNCP(=O)(O)O` [glyphosate]: the “sensitivity of Marchantia polymorpha to the herbicide” value with Marchantia polymorpha was “insensitive”.
As for `CP(=O)(O)CCC(N)C(=O)O` (stereo not drawn) [glufosinate], the “sensitivity of Marchantia polymorpha to the herbicide” value in the assay on Marchantia polymorpha is given as “insensitive”.
Consider `CNc1cnn(-c2cccc(C(F)(F)F)c2)c(=O)c1Cl` [Norflurazon], for which the survival of sporelings result in assay [1] (setting [2]) is recorded as “have all died”.
`COc1nc(C)nc(NC(=O)NS(=O)(=O)c2ccccc2Cl)n1` [Chlorsulfuron]: in assay [1] (setting [2]), the growth of sporelings result was “marked reduction in growth” and the survival of sporelings result is recorded as “have not all died”. In addition, the “lethal dose (dose sufficient to kill 100% of wild-type plants)” value in assay [1] (wild-type Marchantia polymorpha, two weeks following exposure) was found to be 0.1 ppm.

Source of the values: patent US20220390438A1, “Identification and Characterisation of Herbicides and Plant Growth Regulators” (priority 2019, published 2022).
